Test results reported in PubChem BioAssay (NCI).
“And” between values parts separate entries of the source, which are not always exact repeats. Equal values may be shown once.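 Briefly, cells in 96-well plates were exposed to five compound concentrations for 48 h, and endpoints were estimated by linear interpolation. Here, GI50 denotes the concentration required for 50% inhibition of growth. Definition used: TGI = concentration required for complete inhibition of growth.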

Assays:
Assay in all cases: DTP human tumour cell line panel, 48 h
[1] = tested on: 786-0 renal
[2] = tested on: BT-549 breast
[3] = tested on: DLD-1 colon
[4] = tested on: DMS 114 small cell lung
[5] = tested on: HCT-15 colon
[6] = tested on: HL-60(TB) leukemia
[7] = tested on: LOX IMVI melanoma
[8] = tested on: SK-MEL-2 melanoma
[9] = tested on: SK-MEL-5 melanoma
[10] = tested on: SN12C renal

| SMILES | GI50 [1] | TGI [1] | GI50 [2] | TGI [2] | TGI [3] | TGI [4] | GI50 [5] | TGI [5] | GI50 [6] | TGI [6] | GI50 [7] | TGI [7] | GI50 [8] | TGI [8] | GI50 [9] | TGI [9] | TGI [10] | GI50 [3] | GI50 [4] | GI50 [10] |
| --- | --- | --- | --- | --- | --- | --- | --- | --- | --- | --- | --- | --- | --- | --- | --- | --- | --- | --- | --- | --- |
| COc1cc(O)c2c(c1)C(=O)c1cc3c(c(O)c1C2=O)C(OC1OC(C)C(O)C(O)C1OC)C(OC)C(C)(O)C3=O (centres undefined) | 2.42 µM | 40.5 µM | 2.07 µM | 5.18 µM | 11.6 µM | 5.24 µM | 2.65 µM | 12.2 µM and 7.35 µM | 3.44 µM and 6.26 µM | 17.6 µM and 24.3 µM | 1.67 µM | 4.91 µM and 7.1 µM | 2.49 µM | 6.52 µM and 9.1 µM | 1.27 µM | 2.57 µM and 2.26 µM | 7.18 µM and 7.44 µM |  |  |  |
| CC1=C[P+](Cc2ccccc2)(c2ccccc2)CC1 (centres undefined) |  | > 100 µM |  |  | > 100 µM | > 100 µM |  | > 100 µM |  | > 100 µM |  | > 100 µM |  | > 100 µM |  | > 100 µM and 56.7 µM and 84.1 µM | > 100 µM |  |  |  |
| N#CCC(=O)N/N=C(\C(=O)Nc1ccc(Cl)c(Cl)c1)C1CN(c2ccccc2)N=C1N (centres undefined) |  | > 100 µM |  |  | > 100 µM | > 100 µM |  | > 100 µM |  | > 100 µM |  | > 100 µM |  | > 100 µM |  | > 100 µM | > 100 µM |  |  |  |
| COc1ccc2nc3ccccc3c(NCCCN(C)CCCl)c2c1 |  | 1.07 µM |  | 2.57 µM | 3.68 µM | 1.68 µM |  | 8.29 µM |  |  |  | 1.16 µM |  | 1.81 µM |  | 1.59 µM | 1.55 µM |  |  |  |
| COc1ccc(OC(C(=O)O)c2ccccc2)c2c1CCCC2=O (centres undefined) |  | > 100 µM |  |  | > 100 µM | > 100 µM |  | > 100 µM |  | > 100 µM |  | > 100 µM |  | > 100 µM |  | > 100 µM | > 100 µM |  |  |  |
| CC(C)(C)OC(=O)NC(CO)c1cccc(OCc2ccccc2)c1 (centres undefined) |  | > 100 µM |  |  | > 100 µM | > 100 µM |  | > 100 µM |  | 43.8 µM |  | > 100 µM |  | > 100 µM |  | > 100 µM | > 100 µM |  |  |  |
| Cc1nn(-c2nc3ccccc3s2)c2c1C(=O)c1ccccc1-2 |  | > 100 µM |  |  | > 100 µM | > 100 µM |  | > 100 µM |  | > 100 µM |  | > 100 µM |  | > 100 µM |  | > 100 µM | > 100 µM |  |  |  |
| C[n+]1ccc(-c2c3nc(c(-c4cc[n+](C)cc4)c4ccc([n-]4)c(-c4cc[n+](C)cc4)c4nc(c(-c5cc[n+](C)cc5)c5ccc2[n-]5)C=C4)C=C3)cc1.[I-].[Zn+2] | 8.39 µM | 28 µM |  |  | 84.3 µM | 22.6 µM | > 100 µM | > 100 µM | 21.5 µM | 42 µM | 82.9 µM | > 100 µM | 19.1 µM | 47.3 µM | 15.9 µM | 37.4 µM | 43.3 µM | 29.3 µM | 7.11 µM | 19.7 µM |
| N#C/C(=C/Sc1ccccc1)C(=O)O |  | 77.9 µM |  |  | > 100 µM | 35.8 µM |  | > 100 µM |  | > 100 µM |  | 24.5 µM |  | 72.3 µM |  | > 100 µM | 57.5 µM |  |  |  |
| Clc1cc2n[se]nc2cc1Cl |  | > 100 µM |  |  | > 100 µM | > 100 µM |  | > 100 µM |  | > 100 µM |  | > 100 µM |  | > 100 µM |  | > 100 µM | > 100 µM |  |  |  |
| CCOC(=O)c1ccc(NC(=O)SCCC(=O)O)cc1 |  | > 100 µM |  |  | > 100 µM | > 100 µM |  | > 100 µM |  | > 100 µM |  | > 100 µM |  | > 100 µM |  |  | > 100 µM |  |  |  |
| Cc1nn(C)cc1P(=S)(c1ccccc1)c1ccccc1 |  | > 100 µM |  |  | > 100 µM | > 100 µM |  | > 100 µM |  | 41.7 µM |  | > 100 µM |  | > 100 µM |  | > 100 µM | > 100 µM |  |  |  |
